Measured values reported in US5990326A, “3-oxiranyl benzoic acids and derivatives thereof” (G.D. Searle & Co., priority 1992, dated 1999).
Structures can show the parent of a compound that is named as a salt.

Legend:
[1] = biological target: T1, LTA4 hydrolase (Rattus norvegicus, UniProt P30349); test: Leukotriene-A4 (LTA4) Hydrolase Enzyme Assay (inhibition of LTB4 production by rat neutrophil cytosol, RIA); type: biochemical, rat (male Sprague Dawley); details: for inhibition at 100 µM: 10^-4 M; for IC50: rat neutrophil cytosolic LTA4 hydrolase
T1 construct: the supernatant containing cytosolic LTA4 hydrolase was obtained; from tissue; host or cells: peritoneal neutrophils (90-95% pure, oyster-glycogen elicited) of male Sprague Dawley rats; 100,000 x G supernatant of the homogenate
T1 sequence (P30349 1-611): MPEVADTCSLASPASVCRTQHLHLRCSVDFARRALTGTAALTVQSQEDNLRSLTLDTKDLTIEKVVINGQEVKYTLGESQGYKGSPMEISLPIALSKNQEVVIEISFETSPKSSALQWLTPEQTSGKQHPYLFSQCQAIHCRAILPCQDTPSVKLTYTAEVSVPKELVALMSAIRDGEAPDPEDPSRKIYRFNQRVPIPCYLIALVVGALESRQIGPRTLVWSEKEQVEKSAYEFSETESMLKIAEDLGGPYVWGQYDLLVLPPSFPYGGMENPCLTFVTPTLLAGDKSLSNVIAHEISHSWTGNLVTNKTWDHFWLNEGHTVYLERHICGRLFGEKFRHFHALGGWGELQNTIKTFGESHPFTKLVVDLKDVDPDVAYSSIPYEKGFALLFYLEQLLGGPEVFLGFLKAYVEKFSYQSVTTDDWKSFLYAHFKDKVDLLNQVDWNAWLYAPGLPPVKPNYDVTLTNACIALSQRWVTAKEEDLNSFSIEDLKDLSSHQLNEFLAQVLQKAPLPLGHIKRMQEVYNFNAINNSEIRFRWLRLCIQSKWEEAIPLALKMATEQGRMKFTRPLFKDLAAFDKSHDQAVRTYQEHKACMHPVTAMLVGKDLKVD
Excerpt: Leukotriene --A4 Hydrolase Inhibition Materials
Leukotriene-A4 -methyl ester and leukotriene-A3 were purchased from Biomol (Cambridge). Trans-stilbene oxide, EDTA, phenylmethyl sulphonyl fluoride were purchased from Sigma (St. Louis). Eagles Basil Media was purchased from GIBCO (Grand Island). LTB4 radioimmunoassay kit was purchased from Amersham (Arlington Heights, Ill.) (#Trk. 840).
Methods were modified from those reported by Evans et al., Biochem. Biophys. Acta, 840:43-50 (1985).
Male Sprague Dawley (CD1) rats (250-400 gm bodyweight) were given oyster glycogen, 1 mg/ml in 0.9% NaCl, by intraperitoneal injection. The animals were sacrificed after 8-20 hours and the peritoneal cavity washed with 10 ml Eagles Basil Medium (pH 7.4, 25 mM HEPES, without glutamine). The collected peritoneal lavage fluid was centrifuged at 150×G, 15 minutes at 4° C. to isolate the neutrophils. The supernatant was removed and the cell pellet was resuspended in 20 cc 10 mM sodium phosphate buffer, pH 7.0 with 2 mM Na-EDTA and 1 mM phenylmethyl sulphonyl fluoride (PMSF).
Leukotriene-A4 Hydrolase Isolation
The cell suspensions, which were 90-95% neutrophils as determined by cytometry, were homogenized by a polytron at 4° C. with three 30 second bursts with cooling on ice in between. The homogenate was centrifuged at 100,000×G for 60 minutes, and the supernatant containing cytosolic LTA4 hydrolase was obtained.
LTA4 Methyl Ester Deesterificaiton
LTA4, the substrate for LTA4 hydrolase, is supplied as the stable methyl ester that must be hydrolized to the active form. LTA4 -methyl ester (5000 ng) was dried under a stream of super-dry Argon (Matheson) to which was added a 1 ml methanol: 10M NaOH (9.8:0.2 v/v). The mixture was stirred 3 hours at 4° C. and used immediately.
LTA4 Hydrolase Enzyme Assay
Supernatant containing LTA4 hydrolase, 0.5 ml, was added to 0.5 ml Tris-acetate buffer, pH 7.8, containing 1 mg/ml fatty-acid free BSA. The mixture was incubated 3 minutes at 37° C. with 0.1 ml containing different enzyme inhibitor and test compound concentrations in DMSO. LTA4, 25 ng in 20 μl methanol, was added and incubation with shaking continued at 37° C. for one minute. The reaction was quenched with 2 ml ice-cold ethanol. The quenched mixture was immediately frozen at -76° C. LTB4 levels were determined by radioimmunoassay (RIA) with a validated commercial kit. Various concentrations of potential enzyme inhibitors were evaluated for inhibition of LTB4 production using a standardized amount of enzyme and substrate. The amount of inhibitor necessary to reduce LTB4 production by fifty percent was calculated as the IC50 value for each inhibitor. IC50 values were determined by least square linear regression analysis from the average ±SEM for 4 experiments.

[2] = system: A23187-Induced LTB4 Production in Human Promyelocytic Leukemia HL-60 Cells; test: A23187-Induced LTB4 Production in Human Promyelocytic Leukemia HL-60 Cells (HL-60 Cell Assay); type: cell-based; parameters: key to HL-60 Cell Assay % Inhibition: I: inactive at that concentration; details: for IC50: A23187-stimulated HL-60 cells, LTB4
Excerpt: A23187-Induced LTB4 Production in Human Promyelocytic Leukemia HL-60 Cells.
Materials: Calcium ionophore A23187 was obtained from Calbiochem (La Jolla, Calif.). Trans-stilbene oxide was obtained from Sigma (St. Louis, Mis.). Hanks' balanced salt solution (HBSS) (10× concentrate), 1M Hepes, and Dulbecco's modified Eagle medium were obtained from GIBCO Laboratories (Grand Island, N.Y.). Fetal bovine serum was obtained from HyClone Laboratories (Logan, Utah). The LTB4 and PGE2 radioimmunoassay antibodies were purchased from Amersham International plc (Amersham, UK) and NEN Research Products (N. Billerica, Mass.), respectively. Reagents for assay of lactate dehydrogenase (LDH) activity were purchased from Beckman (Carlsbad, Calif.).
Preparation of HL-60 Cells: HL-60 cells were cultured in Dulbecco's modified Eagle medium (supplemented with 20% fetal bovine serum, 20 mM Hepes, 100 U/ml penicillin and 100 mcg/ml streptomycin) and maintained at 37° C. in a humidified atmosphere of 5% CO2 in air. Cells from exponentially growing cultures were seeded at 3×10^5 cells/ml and induced to differentiate into granulocytes wth 0.8% (v/v) N,N-dimethylformamide for 4 days (1,2). Prior to assay, differentiated HL-60 cells were washed once with Hanks' balanced salt solution containing 0.35 mg/ml sodium bicarbonate and 10 mM Hepes, pH 7.3 (HBSS) and resuspended in HBSS at a concentration of 3×10^6 cells/ml. HL-60 cell viability was >95% as assessed by trypan blue exclusion.
HL-60 Cell Assay: DMSO or test compounds as 100× concentrates in DMSO were added in duplicate to 1.0 ml HL-60 cell suspensions (3×10^6cells) and preincubated at 37° C. for 10 minutes in a shaking water bath. After an additional 5 minute incubation with calcium ionophore A23187 (10 mcl @ 5×10^-4 M in DMSO), the cells were pelleted at 12,800×g for 15 seconds and the supernatant removed and stored at -20° C. for quantification of LTB4 or PGE2 via radioimmunoassay and LDH activity.
Statistical Methods: LTB4 and PGE2 data were expressed as percent inhibition of A23187-stimulated controls. For IC50 determinations, the 4 parameter logistic model was used where y is the percent inhibition response and x is the log10 concentration of the inhibitor: [formula] Nonlinear regression was performed using the SAS (3) procedure NLIN to obtain least squares estimates of the four parameters in the above equation: yx (maximum), Y0 (minimum), a (log10 IC50) and b (slope factor). Increases in mean LDH levels for A23187-stimulated cells in the presence of test compound were tested for significance using a one-tailed two sample Student's t-test.

SMILES	inhibition at 100 µM [1] [%]	HL-60 Cell Assay % Inhibition ([2]; 10^-5 M)	inhibition at 100 µM ([2]; Homo sapiens, HL-60, 10^-4 M) [%]	HL-60 Cell Assay % Inhibition ([2]; 10^-4 M)	inhibition at 10 µM ([2]; Homo sapiens, HL-60, 10^-5 M) [%]	inhibition at 1 µM ([2]; Homo sapiens, HL-60, 10^-6 M) [%]	IC50 ([2]; Homo sapiens) [nM]	IC50 [1] [nM]	HL-60 Cell Assay % Inhibition ([2]; 10^-6 M)	inhibition at 50 µM ([2]; Homo sapiens, HL-60, 5 × 10^-5 M) [%]
CCCCCCCCCCCCCC[C@@H]1O[C@H]1c1cccc(C(=O)OC)c1 (relative stereo) [Example 22, Methyl 3-(3-tetradecyloxiranyl)benzoate]	20	I	79							
CCCCCCCCCCCC/C=C/C1OC1c1cccc(C(=O)OC)c1 (centres unmarked) [Example 1, Methyl 3-[3-(1E-tetradecenyl)oxiranyl]benzoate]				I						
CCCCCCCCCCCC/C=C/C1OC1c1cccc(C(=O)O)c1 (centres unmarked) [Example 1,Li^+ salt]	40		94		96	26	2800			
CCCCCCCCCC/C=C/C=C/C1OC1c1cccc(C(=O)OC)c1 (centres unmarked) [Example 4, Methyl 3-[3-(1E,3E-tetradecadienyl)oxiranyl]benzoate]		I	29							
CCCCCCCCCC/C=C/C=C/C1OC1c1cccc(C(=O)O)c1 (centres unmarked) [Example 4,Li^+ salt]	58		88		89	77	160	80000		
CCCCCCCC/C=C/C=C/C=C/C1OC1c1cccc(C(=O)O)c1 (centres unmarked) [Example 7,Li^+ salt]	85				61		15000	2000	I	80
